According to patent publication US11214803B2, “Modulators of YAP1 expression” (Ionis Pharmaceuticals, Inc., priority 2019, dated 2022):
Strand notation (5' to 3'): a small letter for the sugar, then the base; units joined by * are phosphorothioate-linked, units joined directly phosphodiester-linked; [ ] holds rarer units or linkages, { } end groups; capitals alone tell only the bases. k = constrained ethyl (cEt); [5mC] = 5-methylcytosine; d = 2'-deoxy (DNA)

Test system: Yap1 mRNA
Assay: Antisense inhibition of human Yap1 in A-431 cells by cEt gapmers, single dose (Example 3, RTS36584)
Assay type: cell-based
Settings: Table 8; A-431 cells, 5,000 cells per well, free uptake, 2,000 nM, approximately 48 hours; RTS36584; normalized to RIBOGREEN; Yap1 mRNA relative to untreated control cells
Procedure, shortened: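 Single-dose free-uptake screen of 3-10-3 cEt gapmers in A-431 cells at 2,000 nM over about 48 h. Values are % untreated control Yap1 mRNA.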

Row | Substance | YAP1 (% UTC)
1 | 958396 (antisense kA*kG*kG*d[5mC]*dT*dA*dT*dT*dA*dA*dG*d[5mC]*dT*kG*kT*kT) [Compound 958396] | 131
2 | 958395 (antisense k[5mC]*kT*kA*dA*d[5mC]*dA*dA*d[5mC]*d[5mC]*dT*dG*dG*dT*kT*kT*kG) [Compound 958395] | 114
3 | 958387 (antisense kG*kA*kG*dG*d[5mC]*dG*d[5mC]*dG*d[5mC]*dG*d[5mC]*dA*dT*kT*kG*kT) [Compound 958387] | 131
4 | 958422 (antisense kT*kT*kT*d[5mC]*dT*dT*dA*dA*d[5mC]*d[5mC]*dA*dG*d[5mC]*kG*kG*kA) [Compound 958422] | 15
5 | 958404 (antisense kG*k[5mC]*kA*d[5mC]*dA*d[5mC]*dA*dA*d[5mC]*dT*d[5mC]*dA*dG*kA*k[5mC]*kA) [Compound 958404] | 52
6 | 958381 (antisense kT*k[5mC]*k[5mC]*dT*d[5mC]*dT*dG*d[5mC]*dG*d[5mC]*dG*d[5mC]*d[5mC]*k[5mC]*kG*k[5mC]) [Compound 958381] | 146
7 | 958365 (antisense kG*k[5mC]*k[5mC]*dA*dT*dG*dT*dT*dG*dT*dT*dG*dT*k[5mC]*kT*kG) [Compound 958365] | 34
8 | 958377 (antisense kG*k[5mC]*kT*dG*dG*dG*dA*dT*dT*dG*dA*dT*dA*kT*kT*k[5mC]) [Compound 958377] | 9
9 | 958412 (antisense kA*k[5mC]*k[5mC]*dT*dT*dT*dA*d[5mC]*d[5mC]*dA*dA*dA*dA*k[5mC]*kG*kA) [Compound 958412] | 49
10 | 958418 (antisense kA*kG*kA*dG*d[5mC]*d[5mC]*dT*dA*d[5mC]*d[5mC]*dT*dG*dA*k[5mC]*kA*kT) [Compound 958418] | 47

Same assay, conditions: Table 9; A-431 cells, 5,000 cells per well, free uptake, 2,000 nM, approximately 48 hours; RTS36584; normalized to RIBOGREEN; Yap1 mRNA relative to untreated control cells

Row | Substance | YAP1 (% UTC)
11 | 958526 (kA*kG*kT*dA*dA*dG*dA*dA*d[5mC]*dA*dA*dT*d[5mC]*kT*kT*kG; antisense) [Compound 958526] | 6
12 | 958441 (antisense kG*k[5mC]*kG*dA*d[5mC]*dG*dG*d[5mC]*dT*dG*d[5mC]*dG*dG*kG*k[5mC]*k[5mC]) [Compound 958441] | 72

Same assay, conditions: Table 10; A-431 cells, 5,000 cells per well, free uptake, 2,000 nM oligonucleotide, approx. 48 hours; primer probe set RTS36584; Yap1 mRNA normalized to RIBOGREEN, percent of untreated control

Row | Substance | YAP1 (% UTC)
13 | 958447 (antisense kG*kT*kT*dG*dA*dG*dG*d[5mC]*dG*dG*d[5mC]*dG*dG*k[5mC]*kT*kG) [Compound 958447] | 48
14 | 958557 (k[5mC]*kA*k[5mC]*dA*dA*d[5mC]*d[5mC]*dA*dA*d[5mC]*dT*dA*dT*kT*kA*k[5mC]; antisense) [Compound 958557] | 10
15 | 958717 (antisense kA*kA*kT*dA*dA*dT*dA*dT*dA*dG*d[5mC]*dT*dT*kA*k[5mC]*kG) [Compound 958717] | 11

Same assay, conditions: Table 11; A-431 cells, 5,000 cells per well, free uptake, 2,000 nM oligonucleotide, approx. 48 hours; primer probe set RTS36584; Yap1 mRNA normalized to RIBOGREEN, percent of untreated control

Row | Substance | YAP1 (% UTC)
16 | 958653 (kT*kT*kA*d[5mC]*dA*d[5mC]*dA*d[5mC]*dA*dG*dG*d[5mC]*dT*kA*kT*kG; antisense) [Compound 958653] | 17
17 | 958693 (antisense kG*kT*kG*dG*dT*dG*dT*d[5mC]*dT*d[5mC]*dA*d[5mC]*dA*kG*kG*k[5mC]) [Compound 958693] | 99
18 | 958753 (antisense kT*kG*kT*dA*dT*dA*dT*dG*d[5mC]*d[5mC]*dG*dT*dT*k[5mC]*k[5mC]*k[5mC]) [Compound 958753] | 4
19 | 958558 (kT*kT*k[5mC]*dA*d[5mC]*dA*dA*d[5mC]*d[5mC]*dA*dA*d[5mC]*dT*kA*kT*kT; antisense) [Compound 958558] | 9
20 | 958698 (antisense k[5mC]*kT*kT*dA*dT*dT*dA*dG*d[5mC]*d[5mC]*d[5mC]*dT*d[5mC]*kA*kA*kA) [Compound 958698] | 30

Same assay, conditions: Table 12; A-431 cells, 5,000 cells per well, free uptake, 2,000 nM modified oligonucleotide, approx. 48 hours; RTS36584; normalized to RIBOGREEN; Yap1 mRNA relative to untreated control cells

Row | Substance | YAP1 (% UTC)
21 | 958774 (antisense kT*kG*k[5mC]*dT*dA*dG*dA*dT*dA*dT*d[5mC]*dG*d[5mC]*k[5mC]*kA*kA) [Compound 958774] | 33
22 | 958484 (antisense kG*k[5mC]*kA*dG*d[5mC]*dA*dA*dT*dG*dG*dA*d[5mC]*dA*kA*kG*kG) [Compound 958484] | 2
23 | 958789 (antisense kT*kA*k[5mC]*dT*dA*dT*dA*dT*dA*dA*dT*dA*d[5mC]*k[5mC]*k[5mC]*kT) [Compound 958789] | 17
24 | 958679 (kG*kT*kA*dA*d[5mC]*dT*dG*d[5mC]*d[5mC]*dA*d[5mC]*dA*dG*kT*kT*kA; antisense) [Compound 958679] | 77
25 | 958539 (kT*k[5mC]*kT*dA*dT*d[5mC]*d[5mC]*dA*dG*dG*dG*dT*d[5mC]*kA*kA*kT; antisense) [Compound 958539] | 11
26 | 958504 (kA*kT*k[5mC]*dG*dA*dG*dA*dT*dT*dT*dA*dA*dA*kT*kA*kA; antisense) [Compound 958504] | 63

Same assay, conditions: Table 13; A-431 cells, 5,000 cells per well, free uptake, 2,000 nM modified oligonucleotide, approx. 48 hours; RTS36584; normalized to RIBOGREEN; Yap1 mRNA relative to untreated control cells

Row | Substance | YAP1 (% UTC)
27 | 958695 (antisense kT*k[5mC]*kA*dA*dT*dT*d[5mC]*dT*d[5mC]*d[5mC]*dA*d[5mC]*d[5mC]*kA*kG*kA) [Compound 958695] | 45
28 | 958440 (antisense kT*kG*k[5mC]*dG*d[5mC]*d[5mC]*d[5mC]*d[5mC]*dG*dG*d[5mC]*dT*d[5mC]*k[5mC]*kA*k[5mC]) [Compound 958440] | 54
29 | 958545 (kA*k[5mC]*kT*d[5mC]*dT*dA*dG*dT*dT*dA*d[5mC]*dA*dT*k[5mC]*kA*kT; antisense) [Compound 958545] | 3
30 | 958640 (antisense kT*kA*kG*dA*dT*dA*dA*d[5mC]*dT*dG*dT*d[5mC]*dT*k[5mC]*k[5mC]*k[5mC]) [Compound 958640] | 13

Same assay, conditions: Table 27; Yap1 mRNA by 3-10-3 cEt gapmers targeting SEQ ID NO.: 1, and 2; percent of untreated control

Row | Substance | YAP1 (% UTC)
31 | 1074349 (antisense k[5mC]*kT*kG*dT*dA*d[5mC]*dT*d[5mC]*dT*d[5mC]*dA*dT*d[5mC]*kT*k[5mC]*kG) [compound 1074349] | 30
32 | 1075949 (antisense kT*kA*kG*dG*dA*dA*d[5mC]*dA*d[5mC]*d[5mC]*dA*dA*dG*kG*kT*kT) [compound 1075949] | 48

Same assay, conditions: Table 28; Yap1 mRNA as percent of untreated control; 3-10-3 cEt gapmers targeting SEQ ID NO.: 1, and 2

Row | Substance | YAP1 (% UTC)
33 | 1074734 (kT*kG*k[5mC]*d[5mC]*dA*dG*dG*dT*dA*dT*d[5mC]*dA*d[5mC]*kA*kG*kT; antisense) [compound 1074734] | 51
34 | 1075502 (k[5mC]*kT*kT*dA*dA*d[5mC]*dA*dT*dG*dA*dT*dT*d[5mC]*kT*kA*kG; antisense) [compound 1075502] | 61
35 | 1076078 (k[5mC]*kT*kT*dT*dA*dG*d[5mC]*d[5mC]*dT*d[5mC]*dT*dA*dT*kA*k[5mC]*k[5mC]; antisense) [compound 1076078] | 23
36 | 1075982 (k[5mC]*kA*kT*dG*dA*dA*dA*dG*d[5mC]*dA*dA*dT*dA*kT*k[5mC]*k[5mC]; antisense) [compound 1075982] | 23
37 | 1075374 (antisense kG*kA*kA*dA*dA*dT*dA*d[5mC]*dT*d[5mC]*d[5mC]*dT*d[5mC]*k[5mC]*kT*kA) [compound 1075374] | 27

Same assay, conditions: Table 29; Yap1 mRNA as percent of untreated control; 3-10-3 cEt gapmers targeting SEQ ID NO.: 1, and 2

Row | Substance | YAP1 (% UTC)
38 | 1075695 (kG*kA*kA*dT*dA*dA*d[5mC]*dA*d[5mC]*d[5mC]*dA*d[5mC]*dA*kT*kT*kA; antisense) [compound 1075695] | 30

Same assay, conditions: Table 34; Yap1 mRNA as percent of untreated control; 3-10-3 cEt gapmers targeting SEQ ID NO: 1 and 2; single dose

Row | Substance | YAP1 (% UTC)
39 | 1074996 (antisense kA*kA*kT*dA*dA*dA*dT*dG*d[5mC]*dT*dT*dA*d[5mC]*kG*kG*kG) [compound 1074996] | 60
40 | 1075412 (antisense kT*k[5mC]*k[5mC]*dA*dA*dA*dA*dA*dG*dG*dG*dT*dA*kA*kG*kG) [compound 1075412] | 48
41 | 1075252 (kT*kT*kA*dA*dT*dT*dA*d[5mC]*dG*dA*dT*dT*dA*kG*kA*kT; antisense) [compound 1075252] | 90

Same assay, conditions: Table 35; Yap1 mRNA as percent of untreated control; 3-10-3 cEt gapmers targeting SEQ ID NO: 1 and 2; single dose

Row | Substance | YAP1 (% UTC)
42 | 1074933 (antisense kA*kG*kG*dA*dG*dA*d[5mC]*dT*dA*dT*dA*d[5mC]*dA*kA*k[5mC]*kA) [compound 1074933] | 72
43 | 1076469 (kG*kT*kA*dA*dA*dA*dG*dG*dG*dA*dA*d[5mC]*dT*kA*kA*kG; antisense) [compound 1076469] | 69
44 | 1074517 (kA*kA*kT*dG*d[5mC]*dA*dT*dA*d[5mC]*dA*dA*dA*dG*k[5mC]*kG*k[5mC]; antisense) [compound 1074517] | 55
45 | 1076277 (kG*k[5mC]*kT*dA*dA*dA*dA*d[5mC]*dA*dT*d[5mC]*dA*dG*kA*kT*kA; antisense) [compound 1076277] | 24
46 | 1074869 (kA*kG*kT*dA*d[5mC]*d[5mC]*dT*dA*dA*d[5mC]*dA*dT*dA*kT*kG*kA; antisense) [compound 1074869] | 31
